Test [1] concerns the target hemolysin alpha from Staphylococcus aureus (Staphylococcus aureus, UniProt P09616). As to the kind of experiment: cell-based.
The target in test [2] is S. aureus Alpha hemolysin (Staphylococcus aureus, UniProt P09616). As to the kind of experiment: cell-based. The conditions noted are these: A549-LDH Assay activity.
S. aureus Alpha hemolysin, sequence (P09616 27-319 limits assumed): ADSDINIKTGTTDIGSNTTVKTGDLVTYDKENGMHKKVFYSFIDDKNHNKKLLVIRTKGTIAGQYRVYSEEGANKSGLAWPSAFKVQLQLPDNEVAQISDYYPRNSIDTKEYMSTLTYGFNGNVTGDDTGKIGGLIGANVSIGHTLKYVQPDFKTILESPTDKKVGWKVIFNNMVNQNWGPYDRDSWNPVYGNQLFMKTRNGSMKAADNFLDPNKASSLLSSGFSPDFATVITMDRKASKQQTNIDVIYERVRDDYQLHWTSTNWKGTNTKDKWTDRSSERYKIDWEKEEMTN

hemolysin alpha from Staphylococcus aureus, sequence (P09616 27-319 limits assumed): as above

One may read the IC50 as the concentration that gives 50% inhibition. Higher therefore signals a need for much substance. Broadly, the EC50 is the concentration that produces a half-maximal response. In test [1], `CCCc1ccc(NS(=O)(=O)c2cc3[nH]c(=O)c(=O)[nH]c3cc2Cl)cc1` [Compound 55, 7-chloro-2,3-dioxo-N-(4-propylphenyl)-1,2,3,4-tetrahydroquinoxaline-6-sulfonamide] showed an IC50 of 0.03 to 0.1 µM. In addition, in test [2], the EC50 lay within 0.03 to 0.1 µM.
Regarding `Cc1cc2[nH]c(=O)c(=O)[nH]c2cc1S(=O)(=O)Nc1ccc(C(F)(F)F)c(Cl)c1` [Compound 56, N-(3-chloro-4-(trifluoromethyl)phenyl)-7-methyl-2,3-dioxo-1,2,3,4-tetrahydroquinoxaline-6-sulfonamide], the IC50 in test [1] was 0.03 to 0.1 µM. Besides, the EC50 in test [2] lay within 1 to 6 µM.
The compound `Cc1cc2[nH]c(=O)c(=O)[nH]c2cc1S(=O)(=O)Nc1cc(C)c(-c2cccc(Cl)c2)c(C)c1` [Compound 57, N-(3′-chloro-2,6-dimethyl-[1,1′-biphenyl]-4-yl)-7-methyl-2,3-dioxo-1,2,3,4-tetrahydroquinoxaline-6-sulfonamide] yielded an IC50 in test [1] of 0.03 to 0.1 µM. In test [2], this compound showed an EC50 of 0.03 to 0.1 µM.
In turn, `Cc1cc2[nH]c(=O)c(=O)[nH]c2cc1S(=O)(=O)Nc1cc(C)c(-c2cccs2)c(C)c1` [Compound 58, N-(3,5-dimethyl-4-(thiophen-2-yl)phenyl)-7-methyl-2,3-dioxo-1,2,3,4-tetrahydroquinoxaline-6-sulfonamide] returned an IC50 in test [1] of 0.03 to 0.1 µM. This compound came in with an EC50 in test [2] of 1 to 6 µM.
Consider `Cc1cc2[nH]c(=O)c(=O)[nH]c2cc1S(=O)(=O)Nc1cc(C)c(-c2cccc(N(C)C)c2)c(C)c1` [Compound 59, N-(3′-(dimethylamino)-2,6-dimethyl-[1,1′-biphenyl]-4-yl)-7-methyl-2,3-dioxo-1,2,3,4-tetrahydroquinoxaline-6-sulfonamide], for which the IC50 in test [1] was 0.03 to 0.1 µM. Further, the EC50 in test [2] is 0.1 to 1 µM.
Compound `Cc1cc2[nH]c(=O)c(=O)[nH]c2cc1S(=O)(=O)Nc1ccc2ccccc2c1` [Compound 60, 7-methyl-N-(naphthalen-2-yl)-2,3-dioxo-1,2,3,4-tetrahydroquinoxaline-6-sulfonamide] gave an IC50 in test [1] of 0.03 to 0.1 µM. For the same compound, the EC50 in test [2] was 0.03 to 0.1 µM.
Take `Cc1cc2[nH]c(=O)c(=O)[nH]c2cc1S(=O)(=O)Nc1ccc(-c2ccccc2)cc1` [Compound 61, N-([1,1′-biphenyl]-4-yl)-7-methyl-2,3-dioxo-1,2,3,4-tetrahydroquinoxaline-6-sulfonamide]: the IC50 in test [1] was below 0.03 µM. For the same compound, the EC50 in test [2] fell in the range of 0.03 to 0.1 µM.
The compound `Cc1cc2[nH]c(=O)c(=O)[nH]c2cc1S(=O)(=O)Nc1ccc(-c2sccc2C)c(Cl)c1` [Compound 62, N-(3-chloro-4-(3-methylthiophen-2-yl)phenyl)-7-methyl-2,3-dioxo-1,2,3,4-tetrahydroquinoxaline-6-sulfonamide] showed an IC50 in test [1] of 0.03 to 0.1 µM. This compound also came in with an EC50 in test [2] of 0.1 to 1 µM.
As for `Cc1cc2[nH]c(=O)c(=O)[nH]c2c(F)c1S(=O)(=O)Nc1ccc(Br)c(Cl)c1` [Compound 63, N-(4-bromo-3-chlorophenyl)-5-fluoro-7-methyl-2,3-dioxo-1,2,3,4-tetrahydroquinoxaline-6-sulfonamide], the IC50 in test [1] was in the range of 0.03 to 0.1 µM. In test [2], this compound came in with an EC50 of 1 to 6 µM.
The compound `O=c1[nH]c2cc(F)c(S(=O)(=O)Nc3ccc(-c4ccccc4)cc3)cc2[nH]c1=O` [Compound 64, N-([1,1′-biphenyl]-4-yl)-7-fluoro-2,3-dioxo-1,2,3,4-tetrahydroquinoxaline-6-sulfonamide] returned an IC50 in test [1] of 0.03 to 0.1 µM. Further, the EC50 in test [2] fell in the range of 0.1 to 1 µM.
`O=c1[nH]c2cc(F)c(S(=O)(=O)Nc3ccc(-c4cccc(Cl)c4)c(Cl)c3)cc2[nH]c1=O` [Compound 65, N-(2,3′-dichloro-[1,1′-biphenyl]-4-yl)-7-fluoro-2,3-dioxo-1,2,3,4-tetrahydroquinoxaline-6-sulfonamide] displayed an IC50 in test [1] of 0.03 to 0.1 µM. The EC50 in test [2] fell in the range of 1 to 6 µM.
For `Cc1cc2[nH]c(=O)c(=O)[nH]c2cc1S(=O)(=O)Nc1ccc(-c2cncnc2)c(Cl)c1` [Compound 66, N-(3-chloro-4-(pyrimidin-5-yl)phenyl)-7-methyl-2,3-dioxo-1,2,3,4-tetrahydroquinoxaline-6-sulfonamide] the same measures were 0.03 to 0.1 µM and 0.1 to 1 µM.
On the same counts, the results for `CCc1cc2[nH]c(=O)c(=O)[nH]c2cc1S(=O)(=O)Nc1ccc(C2CC2)cc1` [Compound 67, N-(4-cyclopropylphenyl)-7-ethyl-2,3-dioxo-1,2,3,4-tetrahydroquinoxaline-6-sulfonamide] are 0.03 to 0.1 µM and 0.03 to 0.1 µM.
On to `O=c1[nH]c2cc(F)c(S(=O)(=O)Nc3ccc(C4CC4)cc3)cc2[nH]c1=O` [Compound 68, N-(4-cyclopropylphenyl)-7-fluoro-2,3-dioxo-1,2,3,4-tetrahydroquinoxaline-6-sulfonamide], for which the IC50 in test [1] lay in the range of 0.03 to 0.1 µM. For the same compound, the EC50 in test [2] fell in the range of 0.1 to 1 µM.
As to `Cc1ccc(-c2ccc(NS(=O)(=O)c3cc4[nH]c(=O)c(=O)[nH]c4cc3C)cc2Cl)o1` [Compound 69, N-(3-chloro-4-(5-methylfuran-2-yl)phenyl)-7-methyl-2,3-dioxo-1,2,3,4-tetrahydroquinoxaline-6-sulfonamide], the half-maximal inhibitory concentration (IC50) in test [1] is 0.03 to 0.1 µM. The compound also gave an EC50 in test [2] of 1 to 6 µM.
With `Cc1ccc(-c2c(C)cc(NS(=O)(=O)c3cc4[nH]c(=O)c(=O)[nH]c4cc3C)cc2C)s1` [Compound 70, N-(3,5-dimethyl-4-(5-methylthiophen-2-yl)phenyl)-7-methyl-2,3-dioxo-1,2,3,4-tetrahydroquinoxaline-6-sulfonamide], the IC50 in test [1] was 0.03 to 0.1 µM. In test [2], this compound registered an EC50 of 0.1 to 1 µM.
For `O=c1[nH]c2cc(F)c(S(=O)(=O)Nc3ccc(C4CCCCC4)cc3)cc2[nH]c1=O` [Compound 71, N-(4-cyclohexylphenyl)-7-fluoro-2,3-dioxo-1,2,3,4-tetrahydroquinoxaline-6-sulfonamide] the same measures were 0.1 to 1 µM and 0.1 to 1 µM.
The compound `COc1ccccc1-c1ccc(NS(=O)(=O)c2cc3[nH]c(=O)c(=O)[nH]c3cc2C)cc1Cl` [Compound 72, N-(2-chloro-2′-methoxy-[1,1′-biphenyl]-4-yl)-7-methyl-2,3-dioxo-1,2,3,4-tetrahydroquinoxaline-6-sulfonamide] had an IC50 in test [1] of 0.1 to 1 µM. Besides, the EC50 in test [2] was in the range of 0.1 to 1 µM.
As for `Cc1cc2[nH]c(=O)c(=O)[nH]c2cc1S(=O)(=O)Nc1cc(C)c(-c2ccccc2)c(C)c1` [Compound 73, N-(2,6-dimethyl-[1,1′-biphenyl]-4-yl)-7-methyl-2,3-dioxo-1,2,3,4-tetrahydroquinoxaline-6-sulfonamide], the IC50 in test [1] is 0.1 to 1 µM. In addition, the EC50 in test [2] lay in the range of 0.1 to 1 µM.
As for `Cc1cc(NS(=O)(=O)c2cc3[nH]c(=O)c(=O)[nH]c3cc2F)cc(C)c1-c1ccccc1` [Compound 74, N-(2,6-dimethyl-[1,1′-biphenyl]-4-yl)-7-fluoro-2,3-dioxo-1,2,3,4-tetrahydroquinoxaline-6-sulfonamide], the IC50 in test [1] is 0.1 to 1 µM. The compound also returned an EC50 in test [2] of 0.1 to 1 µM.
With `Cc1cc2[nH]c(=O)c(=O)[nH]c2cc1S(=O)(=O)Nc1ccc(Br)c(Cl)c1` [Compound 75, N-(4-bromo-3-chlorophenyl)-7-methyl-2,3-dioxo-1,2,3,4-tetrahydroquinoxaline-6-sulfonamide], the IC50 in test [1] was in the range of 0.1 to 1 µM. In test [2], this compound came in with an EC50 of 0.1 to 1 µM.
`Cc1cc2[nH]c(=O)c(=O)[nH]c2cc1S(=O)(=O)Nc1ccc(C(C)C)cc1` [Compound 76, N-(4-isopropylphenyl)-7-methyl-2,3-dioxo-1,2,3,4-tetrahydroquinoxaline-6-sulfonamide] returned an IC50 in test [1] of 0.1 to 1 µM. Besides, in test [2], the EC50 fell in the range of 0.1 to 1 µM.
Consider `Cc1cc2[nH]c(=O)c(=O)[nH]c2cc1S(=O)(=O)Nc1ccc(-c2ccccc2Cl)c(Cl)c1` [Compound 77, N-(2,2′-dichloro-[1,1′-biphenyl]-4-yl)-7-methyl-2,3-dioxo-1,2,3,4-tetrahydroquinoxaline-6-sulfonamide], for which, in test [1], the IC50 fell in the range of 0.1 to 1 µM. In test [2], this compound registered an EC50 of 0.1 to 1 µM.
In test [1], `Cc1cc2[nH]c(=O)c(=O)[nH]c2cc1S(=O)(=O)Nc1ccc(-c2ccccc2CO)c(Cl)c1` [Compound 78, N-(2-chloro-2′-(hydroxymethyl)-[1,1′-biphenyl]-4-yl)-7-methyl-2,3-dioxo-1,2,3,4-tetrahydroquinoxaline-6-sulfonamide] gave an IC50 of 0.1 to 1 µM. Further, the EC50 in test [2] was 0.1 to 1 µM.
`Cc1cc2[nH]c(=O)c(=O)[nH]c2cc1S(=O)(=O)Nc1ccc2c(c1)CCC2` [Compound 79, N-(2,3-dihydro-1H-inden-5-yl)-7-methyl-2,3-dioxo-1,2,3,4-tetrahydroquinoxaline-6-sulfonamide] showed an IC50 in test [1] of 0.1 to 1 µM. In test [2], this compound showed a half-maximal effective concentration (EC50) of 0.03 to 0.1 µM.
The compound `COc1cc(NS(=O)(=O)c2cc3[nH]c(=O)c(=O)[nH]c3cc2C)ccc1-c1ccccc1` [Compound 81, N-(2-methoxy-[1,1′-biphenyl]-4-yl)-7-methyl-2,3-dioxo-1,2,3,4-tetrahydroquinoxaline-6-sulfonamide] displayed an IC50 in test [1] of 0.1 to 1 µM. This compound displayed an EC50 in test [2] of 0.1 to 1 µM.
For the compound `O=c1[nH]c2cc(F)c(S(=O)(=O)Nc3ccc(-c4ccsc4)c(Cl)c3)cc2[nH]c1=O` [Compound 82, N-(3-chloro-4-(thiophen-3-yl)phenyl)-7-fluoro-2,3-dioxo-1,2,3,4-tetrahydroquinoxaline-6-sulfonamide], the IC50 in test [1] is 0.1 to 1 µM. The compound further had an EC50 in test [2] of 1 to 6 µM.
For `Cc1cc2[nH]c(=O)c(=O)[nH]c2cc1S(=O)(=O)Nc1ccc(C(C)(C)C)cc1` [Compound 83, N-(4-(tert-butyl)phenyl)-7-methyl-2,3-dioxo-1,2,3,4-tetrahydroquinoxaline-6-sulfonamide] the same measures were 0.1 to 1 µM and 0.03 to 0.1 µM.
Consider `Cc1ccc(-c2c(C)cc(NS(=O)(=O)c3cc4[nH]c(=O)c(=O)[nH]c4cc3C)cc2C)o1` [Compound 84, N-(3,5-dimethyl-4-(5-methylfuran-2-yl)phenyl)-7-methyl-2,3-dioxo-1,2,3,4-tetrahydroquinoxaline-6-sulfonamide], for which, in test [1], the IC50 lay in the range of 0.1 to 1 µM. The same compound yielded an EC50 in test [2] of 0.1 to 1 µM.
In test [1], `O=c1[nH]c2cc(Cl)c(S(=O)(=O)Nc3ccc(C4CC4)cc3)cc2[nH]c1=O` [Compound 85, 7-chloro-N-(4-cyclopropylphenyl)-2,3-dioxo-1,2,3,4-tetrahydroquinoxaline-6-sulfonamide] gave an IC50 of 0.1 to 1 µM. Besides, the EC50 in test [2] lay in the range of 0.03 to 0.1 µM.
